What was measured:
Ceritinib/LDK378 = compound: Cc1cc(Nc2ncc(Cl)c(Nc3ccccc3S(=O)(=O)C(C)C)n2)c(OC(C)C)cc1C1CCNCC1 [Ceritinib/LDK378]
Cediranib/AZD2171 = compound: COc1cc2c(Oc3ccc4[nH]c(C)cc4c3F)ncnc2cc1OCCCN1CCCC1 [Cediranib/AZD2171]
Tivantinib/ARQ197 = compound: O=C1NC(=O)[C@@H](c2cn3c4c(cccc24)CCC3)[C@@H]1c1c[nH]c2ccccc12 [Tivantinib/ARQ197]
Paclitaxel = compound: CC(=O)O[C@H]1C(=O)[C@@]2(C)[C@H]([C@H](OC(=O)c3ccccc3)[C@]3(O)C[C@H](OC(=O)[C@H](O)[C@@H](NC(=O)c4ccccc4)c4ccccc4)C(C)=C1C3(C)C)[C@]1(OC(C)=O)CO[C@@H]1C[C@@H]2O [Paclitaxel]
Pictilisib/GDC0941 = compound: CS(=O)(=O)N1CCN(Cc2cc3nc(-c4cccc5[nH]ncc45)nc(N4CCOCC4)c3s2)CC1 [Pictilisib/GDC0941]
[1] = compound: CCN1CCN(Cc2ccc(Nc3ncc(F)c(-c4cc(F)c5nc(C)n(C(C)C)c5c4)n3)nc2)CC1; experiment: GR value, 72 h; higher = faster growth (1 = untreated, <0 = killing);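 further: breast cancer and non-malignant breast epithelial lines, nine half-log doses, viable cells counted by Hoechst and LIVE/DEAD dye imaging versus time-zero plates and DMSO controls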
[2] = compound: CCc1cnn2c(NCc3ccc[n+]([O-])c3)cc(N3CCCC[C@H]3CCO)nc12; experiment: as above
[3] = compound: CC(=O)c1c(C)c2cnc(Nc3ccc(N4CCNCC4)cn3)nc2n(C2CCCC2)c1=O; experiment: as above
AZD6738 = compound: C[C@@H]1COCCN1c1cc(C2([S@](C)(=N)=O)CC2)nc(-c2cc[nH]c3nccc2-3)n1 [AZD6738]
BSJ-01-175 = compound: CN(C)C/C=C/C(=O)Nc1ccc(O[C@@H]2CCC[C@@H](Nc3ncc(Cl)c(-c4c[nH]c5ccccc45)n3)C2)cc1 [BSJ-01-175]
Rucaparib = compound: CNCc1ccc(-c2[nH]c3cc(F)cc4c3c2CCNC4=O)cc1 [Rucaparib]
THZ531 [4] = compound: T1, CN(C)C/C=C/C(=O)Nc1ccc(C(=O)N2CCC[C@@H](Nc3ncc(Cl)c(-c4c[nH]c5ccccc45)n3)C2)cc1 [THZ531]
THZ1 = compound: CN(C)C/C=C/C(=O)Nc1ccc(C(=O)Nc2cccc(Nc3ncc(Cl)c(-c4c[nH]c5ccccc45)n3)c2)cc1 [THZ1]; experiment: GR value, 72 h; higher = faster growth (1 = untreated, <0 = killing);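 further: breast cancer and non-malignant breast epithelial lines, nine half-log doses, viable cells counted by Hoechst and LIVE/DEAD dye imaging versus time-zero plates and DMSO controls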
YKL-5-124 = compound: C=CC(=O)Nc1ccc(C(=O)Nc2[nH]nc3c2CN(C(=O)N[C@H](CN(C)C)c2ccccc2)C3(C)C)cc1 [YKL-5-124]; experiment: as above
THZ531 [5] = compound: T1, THZ531; experiment: as above
BSJ-03-123 = compound: CC(=O)c1c(C)c2cnc(Nc3ccc(N4CCN(CCOCCOCCOCCNC(=O)COc5cccc6c5C(=O)N(C5CCC(=O)NC5=O)C6=O)CC4)cn3)nc2n(C2CCCC2)c1=O [BSJ-03-123]; experiment: as above
LEE011/Ribociclib = compound: CN(C)C(=O)c1cc2cnc(Nc3ccc(N4CCNCC4)cn3)nc2n1C1CCCC1 [LEE011/Ribociclib]; experiment: as above
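Wherever GR50, 72 h is given: breast cancer and non-malignant breast epithelial cell lines, Deep Dye Drop or Dye Drop imaging, nine half-log doses, GR normalized to time-zero plates and DMSO-only controls.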

Question: MDAMB157 was tested. Which “GR50, 72 h” value (Ceritinib/LDK378) did it give?
Answer: 0.484 µM

Question: What about the “GR50, 72 h” value (Cediranib/AZD2171) of the same cell line?
Answer: 0.825 µM

Question: And the “GR50, 72 h” value (Tivantinib/ARQ197)?
Answer: 0.777 µM

Question: What about the “GR50, 72 h” value (Paclitaxel) of the same cell line?
Answer: 0.00205 µM

Question: What about the “GR50, 72 h” value (Pictilisib/GDC0941) of the same cell line?
Answer: 2.05 µM

Question: And the GR value ([1]; 0.001 µM)?
Answer: 1.01 GR

Question: What about the GR value ([1]; 0.003162 µM) of the same cell line?
Answer: 1.08 GR

Question: What about the GR value ([1]; 0.01 µM) of the same cell line?
Answer: 0.993 GR

Question: And the GR value ([1]; 0.03162 µM)?
Answer: 0.928 GR

Question: And the GR value ([1]; 0.1 µM)?
Answer: 0.913 GR

Question: What about the GR value ([1]; 0.3162 µM) of the same cell line?
Answer: 0.727 GR

Question: And the GR value ([1]; 1 µM)?
Answer: 0.578 GR

Question: What about the GR value ([1]; 3.162 µM) of the same cell line?
Answer: 0.441 GR

Question: What about the GR value ([1]; 10 µM) of the same cell line?
Answer: -0.587 GR

Question: What about the GR value ([2]; 0.0001 µM) of the same cell line?
Answer: 1.07 GR

Question: What about the GR value ([2]; 0.0003162 µM) of the same cell line?
Answer: 1.05 GR

Question: And the GR value ([2]; 0.001 µM)?
Answer: 1.06 GR

Question: What about the GR value ([2]; 0.003162 µM) of the same cell line?
Answer: 0.982 GR

Question: What about the GR value ([2]; 0.01 µM) of the same cell line?
Answer: 0.929 GR

Question: And the GR value ([2]; 0.03162 µM)?
Answer: -0.488 GR

Question: What about the GR value ([2]; 0.1 µM) of the same cell line?
Answer: -0.86 GR

Question: And the GR value ([2]; 0.3162 µM)?
Answer: -0.899 GR

Question: And the GR value ([2]; 1 µM)?
Answer: -0.915 GR

Question: And the GR value ([3]; 0.0003162 µM)?
Answer: 0.945 GR

Question: What about the GR value ([3]; 0.001 µM) of the same cell line?
Answer: 0.976 GR

Question: What about the GR value ([3]; 0.003162 µM) of the same cell line?
Answer: 0.969 GR

Question: What about the GR value ([3]; 0.01 µM) of the same cell line?
Answer: 1.08 GR

Question: And the GR value ([3]; 0.03162 µM)?
Answer: 1.02 GR

Question: What about the GR value ([3]; 0.1 µM) of the same cell line?
Answer: 1.02 GR

Question: And the GR value ([3]; 0.3162 µM)?
Answer: 0.965 GR

Question: What about the GR value ([3]; 1 µM) of the same cell line?
Answer: 1.05 GR

Question: And the GR value ([3]; 3.162 µM)?
Answer: 0.991 GR

Question: Which results are given for MDAMB330?
Answer: GR50, 72 h (AZD6738): 8.42 µM; GR50, 72 h (BSJ-01-175): 0.00635 µM; GR50, 72 h (Ceritinib/LDK378): 1.13 µM; GR50, 72 h (Cediranib/AZD2171): 4.86 µM; GR50, 72 h (Tivantinib/ARQ197): 0.661 µM; GR50, 72 h (Rucaparib): 8.69 µM; GR50, 72 h (Paclitaxel): 0.00423 µM; GR50, 72 h (THZ531 [4]): 0.0247 µM; GR50, 72 h (Pictilisib/GDC0941): 0.293 µM; GR value (THZ1; 0.0001 µM): 1.19 GR; GR value (THZ1; 0.0003162 µM): 0.925 GR; GR value (THZ1; 0.001 µM): 1.1 GR; GR value (THZ1; 0.003162 µM): 0.734 GR; GR value (THZ1; 0.01 µM): 0.455 GR; GR value (THZ1; 0.03162 µM): -0.545 GR; GR value (THZ1; 0.1 µM): -0.924 GR; GR value (THZ1; 0.3162 µM): -0.898 GR; GR value (THZ1; 1 µM): -0.945 GR; GR value (YKL-5-124; 0.001 µM): 0.265 GR; GR value (YKL-5-124; 0.003162 µM): 0.245 GR; GR value (YKL-5-124; 0.01 µM): 0.149 GR; GR value (YKL-5-124; 0.03162 µM): 0.177 GR; GR value (YKL-5-124; 0.1 µM): 0.133 GR; GR value (YKL-5-124; 0.3162 µM): -0.0197 GR; GR value (YKL-5-124; 1 µM): 0.0836 GR; GR value (YKL-5-124; 3.162 µM): 0.0626 GR; GR value (YKL-5-124; 10 µM): -0.732 GR; GR value ([1]; 0.001 µM): 0.797 GR; GR value ([1]; 0.003162 µM): 0.615 GR; GR value ([1]; 0.01 µM): 0.306 GR; GR value ([1]; 0.03162 µM): 0.178 GR; GR value ([1]; 0.1 µM): 0.197 GR; GR value ([1]; 0.3162 µM): 0.241 GR; GR value ([1]; 1 µM): 0.202 GR; GR value ([1]; 3.162 µM): 0.199 GR; GR value ([1]; 10 µM): -0.0587 GR; GR value (THZ531 [5]; 0.0001 µM): 1.12 GR; GR value (THZ531 [5]; 0.0003162 µM): 0.83 GR; GR value (THZ531 [5]; 0.001 µM): 0.891 GR; GR value (THZ531 [5]; 0.003162 µM): 0.971 GR; GR value (THZ531 [5]; 0.01 µM): 0.805 GR; GR value (THZ531 [5]; 0.03162 µM): 0.214 GR; GR value (THZ531 [5]; 0.1 µM): -0.965 GR; GR value (THZ531 [5]; 0.3162 µM): -0.962 GR; GR value (THZ531 [5]; 1 µM): -0.968 GR; GR value ([2]; 0.0001 µM): 1.02 GR; GR value ([2]; 0.0003162 µM): 1.09 GR; GR value ([2]; 0.001 µM): 1.09 GR; GR value ([2]; 0.003162 µM): 1.08 GR; GR value ([2]; 0.01 µM): 1.02 GR; GR value ([2]; 0.03162 µM): -0.513 GR; GR value ([3]; 0.0003162 µM): 1.06 GR; GR value ([3]; 0.001 µM): 0.943 GR; GR value ([3]; 0.003162 µM): 0.931 GR; GR value ([3]; 0.01 µM): 0.747 GR; GR value ([3]; 0.03162 µM): 0.376 GR; GR value ([3]; 0.1 µM): 0.224 GR; GR value ([3]; 0.3162 µM): 0.17 GR; GR value ([3]; 1 µM): 0.228 GR; GR value ([3]; 3.162 µM): 0.213 GR; GR value (BSJ-03-123; 0.001 µM): 0.928 GR; GR value (BSJ-03-123; 0.003162 µM): 0.827 GR; GR value (BSJ-03-123; 0.01 µM): 0.847 GR; GR value (BSJ-03-123; 0.03162 µM): 0.727 GR; GR value (BSJ-03-123; 0.1 µM): 0.637 GR; GR value (BSJ-03-123; 0.3162 µM): 0.403 GR; GR value (BSJ-03-123; 1 µM): 0.337 GR; GR value (BSJ-03-123; 3.162 µM): 0.277 GR; GR value (BSJ-03-123; 10 µM): -0.101 GR; GR value (LEE011/Ribociclib; 0.001 µM): 0.451 GR; GR value (LEE011/Ribociclib; 0.003162 µM): 0.229 GR; GR value (LEE011/Ribociclib; 0.01 µM): 0.361 GR; GR value (LEE011/Ribociclib; 0.03162 µM): 0.14 GR; GR value (LEE011/Ribociclib; 0.1 µM): 0.106 GR; GR value (LEE011/Ribociclib; 0.3162 µM): -0.116 GR; GR value (LEE011/Ribociclib; 1 µM): 0.15 GR; GR value (LEE011/Ribociclib; 3.162 µM): 0.292 GR; GR value (LEE011/Ribociclib; 10 µM): 0.293 GR

— the supplement of paper PMC9663587
